Source: ChEMBL document CHEMBL5375962 (J Med Chem, 2023)
≈ marks a conversion by molar mass, not a printed value.

Molecular target: T1, Ketohexokinase (Homo sapiens, UniProt P50053)
T1 sequence (P50053 whole entry): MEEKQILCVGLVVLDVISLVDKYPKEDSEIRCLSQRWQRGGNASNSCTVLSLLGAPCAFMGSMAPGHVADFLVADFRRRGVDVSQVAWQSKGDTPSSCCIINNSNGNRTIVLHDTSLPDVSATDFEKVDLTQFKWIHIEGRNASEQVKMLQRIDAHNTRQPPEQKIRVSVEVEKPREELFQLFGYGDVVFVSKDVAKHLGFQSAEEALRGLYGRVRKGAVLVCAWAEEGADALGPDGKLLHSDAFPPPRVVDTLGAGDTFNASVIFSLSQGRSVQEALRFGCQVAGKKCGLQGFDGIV
Test: Inhibition of human KHK-C preincubated for 15 mins followed by substrate addition and measured after 20 mins in presence of ATP by Rapidfire MS analysis
Conditions: not given

IC50 [nM]	SMILES
6	C[C@H]1CCN1c1nc(-c2cnn(CC(=O)N3CCN(C)CC3)c2)cc(C(F)(F)F)c1C#N
6	C[C@H]1CCN1c1nc(-c2cnn(C3CCN(C(=O)CN)CC3)c2)cc(C(F)(F)F)c1C#N
6	C[C@H]1CCN1c1nc(-c2cnn(C3CCN(CCO)CC3)c2)cc(C(F)(F)F)c1C#N
5	C[C@H]1CCN1c1nc(-c2cnn(C3CNC3)c2)cc(C(F)(F)F)n1
15	C[C@H]1CCN1c1nc(-c2cnn(C3CNC3)c2)cc(C(F)(F)F)c1C#N

Test system: Hepatocyte
Test: Cytotoxicity against rat Primary hepatocyte
Format: toxicity, cell-based
Conditions: hepatocytes

SMILES	LC20 [nM]
C[C@H]1CCN1c1nc(-c2cnn(CC(=O)N3CCN(C)CC3)c2)cc(C(F)(F)F)c1C#N	18000
C[C@H]1CCN1c1nc(-c2cnn(C3CCN(C(=O)CN)CC3)c2)cc(C(F)(F)F)c1C#N	16000
C[C@H]1CCN1c1nc(-c2cnn(C3CCN(CCO)CC3)c2)cc(C(F)(F)F)c1C#N	17000
C[C@H]1CCN1c1nc(-c2cnn(C3CNC3)c2)cc(C(F)(F)F)n1	48000
C[C@H]1CCN1c1nc(-c2cnn(C3CNC3)c2)cc(C(F)(F)F)c1C#N	31000

Test system: not listed separately
Test: Inhibition of mouse KHK-A
Conditions: not given

IC50 [nM]	SMILES
4	C[C@H]1CCN1c1nc(-c2cnn(CC(=O)N3CCN(C)CC3)c2)cc(C(F)(F)F)c1C#N
3	C[C@H]1CCN1c1nc(-c2cnn(C3CCN(C(=O)CN)CC3)c2)cc(C(F)(F)F)c1C#N
13	C[C@H]1CCN1c1nc(-c2cnn(C3CNC3)c2)cc(C(F)(F)F)n1
8	C[C@H]1CCN1c1nc(-c2cnn(C3CNC3)c2)cc(C(F)(F)F)c1C#N

Test system: not listed separately
Test: Permeability in MDCK cells assessed as drug transport measured over 1 hr in presence of P-gp
Format: ADME, cell-based, Canis lupus familiaris
Conditions: dog

Drug transport [%]	SMILES
12	C[C@H]1CCN1c1nc(-c2cnn(C3CNC3)c2)cc(C(F)(F)F)n1

Test system: not listed separately
Test: Clearance in dog hepatocytes measured per 10^6 cells
Format: ADME, cell-based, Canis lupus familiaris, Hepatocyte
Conditions: read-out: CLH

hepatocyte CLint [µL/min/1e6 cells]	SMILES
4.4	C[C@H]1CCN1c1nc(-c2cnn(C3CNC3)c2)cc(C(F)(F)F)n1

Molecular target: T1, Ketohexokinase
Test: Inhibition of human KHK-A preincubated for 15 mins followed by substrate addition and measured after 20 mins in presence of ATP by Rapidfire MS analysis
Conditions: not given

IC50 [nM]	SMILES
9	C[C@H]1CCN1c1nc(-c2cnn(CC(=O)N3CCN(C)CC3)c2)cc(C(F)(F)F)c1C#N
6	C[C@H]1CCN1c1nc(-c2cnn(C3CCN(C(=O)CN)CC3)c2)cc(C(F)(F)F)c1C#N
4	C[C@H]1CCN1c1nc(-c2cnn(C3CCN(CCO)CC3)c2)cc(C(F)(F)F)c1C#N
4	C[C@H]1CCN1c1nc(-c2cnn(C3CNC3)c2)cc(C(F)(F)F)n1
15	C[C@H]1CCN1c1nc(-c2cnn(C3CNC3)c2)cc(C(F)(F)F)c1C#N

Test system: not listed separately
Test: Clearance in rat hepatocytes measured per 10^6 cells
Format: ADME, cell-based, Hepatocyte
Conditions: read-out: CLH

hepatocyte CLint [µL/min/1e6 cells]	SMILES
11	C[C@H]1CCN1c1nc(-c2cnn(C3CNC3)c2)cc(C(F)(F)F)n1

Molecular target: T1, Ketohexokinase
Test: Inhibition of KHK in human HepG2 cells incubated for 3 hrs by Rapidfire MS analysis
Format: cell-based
Conditions: not given

IC50 [nM]	SMILES
36	C[C@H]1CCN1c1nc(-c2cnn(CC(=O)N3CCN(C)CC3)c2)cc(C(F)(F)F)c1C#N
16	C[C@H]1CCN1c1nc(-c2cnn(C3CCN(C(=O)CN)CC3)c2)cc(C(F)(F)F)c1C#N
15	C[C@H]1CCN1c1nc(-c2cnn(C3CCN(CCO)CC3)c2)cc(C(F)(F)F)c1C#N
6	C[C@H]1CCN1c1nc(-c2cnn(C3CNC3)c2)cc(C(F)(F)F)n1
2	C[C@H]1CCN1c1nc(-c2cnn(C3CNC3)c2)cc(C(F)(F)F)c1C#N

Test system: not listed separately
Test: Metabolic stability in human liver microsomes assessed as compound degradation measured after 30 mins
Format: ADME, Microsome
Conditions: read-out: Drug degradation

metabolised at 0.5 h [%]	SMILES
60	C[C@H]1CCN1c1nc(-c2cnn(CC(=O)N3CCN(C)CC3)c2)cc(C(F)(F)F)c1C#N
0	C[C@H]1CCN1c1nc(-c2cnn(C3CCN(C(=O)CN)CC3)c2)cc(C(F)(F)F)c1C#N
26	C[C@H]1CCN1c1nc(-c2cnn(C3CCN(CCO)CC3)c2)cc(C(F)(F)F)c1C#N
7	C[C@H]1CCN1c1nc(-c2cnn(C3CNC3)c2)cc(C(F)(F)F)n1
15	C[C@H]1CCN1c1nc(-c2cnn(C3CNC3)c2)cc(C(F)(F)F)c1C#N

Test system: not listed separately
Test: Thermodynamic solubility of the compound […] at pH 7.4
Format: physicochemical
Conditions: read-out: Therm_solubility

solubility thermodynamic [µg/mL]	SMILES
7 (≈ 15.6 µM)	C[C@H]1CCN1c1nc(-c2cnn(CC(=O)N3CCN(C)CC3)c2)cc(C(F)(F)F)c1C#N
12 (≈ 26.8 µM)	C[C@H]1CCN1c1nc(-c2cnn(C3CCN(C(=O)CN)CC3)c2)cc(C(F)(F)F)c1C#N
38 (≈ 87.5 µM)	C[C@H]1CCN1c1nc(-c2cnn(C3CCN(CCO)CC3)c2)cc(C(F)(F)F)c1C#N
450 (≈ 1330 µM)	C[C@H]1CCN1c1nc(-c2cnn(C3CNC3)c2)cc(C(F)(F)F)n1
40 (≈ 110 µM)	C[C@H]1CCN1c1nc(-c2cnn(C3CNC3)c2)cc(C(F)(F)F)c1C#N

Test system: not listed separately
Test: Metabolic stability in rat liver microsomes assessed as compound degradation measured after 30 mins
Format: ADME, Microsome
Conditions: read-out: Drug degradation

metabolised at 0.5 h [%]	SMILES
52	C[C@H]1CCN1c1nc(-c2cnn(CC(=O)N3CCN(C)CC3)c2)cc(C(F)(F)F)c1C#N
5	C[C@H]1CCN1c1nc(-c2cnn(C3CCN(C(=O)CN)CC3)c2)cc(C(F)(F)F)c1C#N
38	C[C@H]1CCN1c1nc(-c2cnn(C3CCN(CCO)CC3)c2)cc(C(F)(F)F)c1C#N
11	C[C@H]1CCN1c1nc(-c2cnn(C3CNC3)c2)cc(C(F)(F)F)n1
26	C[C@H]1CCN1c1nc(-c2cnn(C3CNC3)c2)cc(C(F)(F)F)c1C#N

Test system: not listed separately
Test: Metabolic stability in mouse liver microsomes assessed as compound degradation measured after 30 mins
Format: ADME, Microsome
Conditions: read-out: Drug degradation

metabolised at 0.5 h [%]	SMILES
93	C[C@H]1CCN1c1nc(-c2cnn(CC(=O)N3CCN(C)CC3)c2)cc(C(F)(F)F)c1C#N
18	C[C@H]1CCN1c1nc(-c2cnn(C3CCN(C(=O)CN)CC3)c2)cc(C(F)(F)F)c1C#N
32	C[C@H]1CCN1c1nc(-c2cnn(C3CCN(CCO)CC3)c2)cc(C(F)(F)F)c1C#N
21	C[C@H]1CCN1c1nc(-c2cnn(C3CNC3)c2)cc(C(F)(F)F)n1
13	C[C@H]1CCN1c1nc(-c2cnn(C3CNC3)c2)cc(C(F)(F)F)c1C#N

Test system: not listed separately
Test: Clearance in human hepatocytes measured per 10^6 cells
Format: ADME, cell-based, Hepatocyte
Conditions: read-out: CLH

hepatocyte CLint [µL/min/1e6 cells]	SMILES
2.5	C[C@H]1CCN1c1nc(-c2cnn(C3CNC3)c2)cc(C(F)(F)F)n1

Test system: not listed separately
Test: Metabolic stability in dog liver microsomes assessed as compound degradation measured after 30 mins
Format: ADME, Canis lupus familiaris, Microsome
Conditions: read-out: Drug degradation

metabolised at 0.5 h [%]	SMILES
95	C[C@H]1CCN1c1nc(-c2cnn(CC(=O)N3CCN(C)CC3)c2)cc(C(F)(F)F)c1C#N
0	C[C@H]1CCN1c1nc(-c2cnn(C3CCN(C(=O)CN)CC3)c2)cc(C(F)(F)F)c1C#N
57	C[C@H]1CCN1c1nc(-c2cnn(C3CCN(CCO)CC3)c2)cc(C(F)(F)F)c1C#N
20	C[C@H]1CCN1c1nc(-c2cnn(C3CNC3)c2)cc(C(F)(F)F)n1
27	C[C@H]1CCN1c1nc(-c2cnn(C3CNC3)c2)cc(C(F)(F)F)c1C#N

Test system: not listed separately
Test: Inhibition of mouse KHK-C
Conditions: not given

IC50 [nM]	SMILES
7	C[C@H]1CCN1c1nc(-c2cnn(CC(=O)N3CCN(C)CC3)c2)cc(C(F)(F)F)c1C#N
10	C[C@H]1CCN1c1nc(-c2cnn(C3CCN(C(=O)CN)CC3)c2)cc(C(F)(F)F)c1C#N
8	C[C@H]1CCN1c1nc(-c2cnn(C3CCN(CCO)CC3)c2)cc(C(F)(F)F)c1C#N
3	C[C@H]1CCN1c1nc(-c2cnn(C3CNC3)c2)cc(C(F)(F)F)n1
5	C[C@H]1CCN1c1nc(-c2cnn(C3CNC3)c2)cc(C(F)(F)F)c1C#N
